Test results taken from PubChem BioAssay (NCI).
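Five compound concentrations were applied to cells in 96-well plates for 48 hours; endpoints were derived by simple linear interpolation of the resulting dose-response curve. Definition used: TGI = concentration required for complete inhibition of growth.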

What was measured:
Test in all cases: NCI tumour cell line growth inhibition, 48 h
786-0 renal = system: 786-0 renal
A498 renal = system: A498 renal
A549 NSCLC = system: A549 NSCLC
ACHN renal = system: ACHN renal
CAKI-1 renal = system: CAKI-1 renal
CCRF-CEM leukemia = system: CCRF-CEM leukemia
COLO 205 colon = system: COLO 205 colon
DLD-1 colon = system: DLD-1 colon
DMS 114 small cell lung = system: DMS 114 small cell lung
DMS 273 small cell lung = system: DMS 273 small cell lung
EKVX NSCLC = system: EKVX NSCLC
HCC-2998 colon = system: HCC-2998 colon
HCT-116 colon = system: HCT-116 colon
HCT-15 colon = system: HCT-15 colon
HL-60(TB) leukemia = system: HL-60(TB) leukemia
HOP-18 NSCLC = system: HOP-18 NSCLC
HOP-62 NSCLC = system: HOP-62 NSCLC
HOP-92 NSCLC = system: HOP-92 NSCLC
HT29 colon = system: HT29 colon
IGROV1 ovarian = system: IGROV1 ovarian
K-562 leukemia = system: K-562 leukemia
KM12 colon = system: KM12 colon
KM20L2 colon = system: KM20L2 colon
LOX IMVI melanoma = system: LOX IMVI melanoma
LXFL 529 NSCLC = system: LXFL 529 NSCLC
M14 melanoma = system: M14 melanoma
M19-MEL melanoma = system: M19-MEL melanoma
MALME-3M melanoma = system: MALME-3M melanoma
MOLT-4 leukemia = system: MOLT-4 leukemia
NCI-H226 lung = system: NCI-H226 lung
NCI-H23 lung = system: NCI-H23 lung
NCI-H460 lung = system: NCI-H460 lung
NCI-H522 lung = system: NCI-H522 lung
OVCAR-3 ovarian = system: OVCAR-3 ovarian
OVCAR-4 ovarian = system: OVCAR-4 ovarian
OVCAR-5 ovarian = system: OVCAR-5 ovarian
OVCAR-8 ovarian = system: OVCAR-8 ovarian
RPMI-8226 leukemia = system: RPMI-8226 leukemia
RXF 393 renal = system: RXF 393 renal
RXF-631 renal = system: RXF-631 renal
SF-268 CNS = system: SF-268 CNS
SF-295 CNS = system: SF-295 CNS
SF-539 CNS = system: SF-539 CNS
SK-MEL-2 melanoma = system: SK-MEL-2 melanoma
SK-MEL-28 melanoma = system: SK-MEL-28 melanoma
SK-MEL-5 melanoma = system: SK-MEL-5 melanoma
SK-OV-3 ovarian = system: SK-OV-3 ovarian
SN12C renal = system: SN12C renal
SNB-19 CNS = system: SNB-19 CNS
SNB-75 CNS = system: SNB-75 CNS
SNB-78 CNS = system: SNB-78 CNS
SR leukemia = system: SR leukemia
SW-620 colon = system: SW-620 colon
TK-10 renal = system: TK-10 renal
U251 CNS = system: U251 CNS
UACC-257 melanoma = system: UACC-257 melanoma
UACC-62 melanoma = system: UACC-62 melanoma
UO-31 renal = system: UO-31 renal
XF 498 CNS = system: XF 498 CNS
MCF7 breast = system: MCF7 breast
NCI/ADR-RES ovarian = system: NCI/ADR-RES ovarian
P388 leukemia = system: P388 leukemia
P388/ADR leukemia = system: P388/ADR leukemia
SN12K1 renal = system: SN12K1 renal

O=C(NNC(=O)/C(=C/c1cccc([N+](=O)[O-])c1)NC(=O)c1ccccc1)Nc1ccc(Cl)cc1
TGI (786-0 renal): 29.1 µM
TGI (A498 renal): 23.4 µM
TGI (A549 NSCLC): 31.4 µM
TGI (ACHN renal): 31.8 µM
TGI (CAKI-1 renal): 40.2 µM
TGI (CCRF-CEM leukemia): 31.2 µM
TGI (COLO 205 colon): 26.8 µM
TGI (DLD-1 colon): 26.7 µM
TGI (DMS 114 small cell lung): 26.9 µM
TGI (DMS 273 small cell lung): 26.1 µM
TGI (EKVX NSCLC): 44 µM
TGI (HCC-2998 colon): 25.8 µM
TGI (HCT-116 colon): 26.2 µM
TGI (HCT-15 colon): 24.7 µM
TGI (HL-60(TB) leukemia): 30.3 µM
TGI (HOP-18 NSCLC): 34.6 µM
TGI (HOP-62 NSCLC): 29.6 µM
TGI (HOP-92 NSCLC): 40.4 µM
TGI (HT29 colon): 27.8 µM
TGI (IGROV1 ovarian): 27.4 µM
TGI (K-562 leukemia): 36.1 µM
TGI (KM12 colon): 24.7 µM
TGI (KM20L2 colon): 32.4 µM
TGI (LOX IMVI melanoma): 30.2 µM
TGI (LXFL 529 NSCLC): 23.5 µM
TGI (M14 melanoma): 26.9 µM
TGI (M19-MEL melanoma): 29.1 µM
TGI (MALME-3M melanoma): 30 µM
TGI (MOLT-4 leukemia): 25.2 µM
TGI (NCI-H226 lung): 32.2 µM
TGI (NCI-H23 lung): 30.3 µM
TGI (NCI-H460 lung): 29.9 µM
TGI (NCI-H522 lung): 25.7 µM
TGI (OVCAR-3 ovarian): 25.4 µM
TGI (OVCAR-4 ovarian): 26.9 µM
TGI (OVCAR-5 ovarian): 32.4 µM
TGI (OVCAR-8 ovarian): 62.1 µM
TGI (RPMI-8226 leukemia): 38.9 µM
TGI (RXF 393 renal): 25.6 µM
TGI (RXF-631 renal): 23.8 µM
TGI (SF-268 CNS): 29.6 µM
TGI (SF-295 CNS): 34.3 µM
TGI (SF-539 CNS): 35.1 µM
TGI (SK-MEL-2 melanoma): 25.5 µM
TGI (SK-MEL-28 melanoma): 30.8 µM
TGI (SK-MEL-5 melanoma): 25.7 µM
TGI (SK-OV-3 ovarian): 32.1 µM
TGI (SN12C renal): 28.2 µM
TGI (SNB-19 CNS): 30.8 µM
TGI (SNB-75 CNS): 36 µM
TGI (SNB-78 CNS): > 100 µM
TGI (SR leukemia): 28.1 µM
TGI (SW-620 colon): 28.5 µM
TGI (TK-10 renal): 31.7 µM
TGI (U251 CNS): 28.4 µM
TGI (UACC-257 melanoma): 34.4 µM
TGI (UACC-62 melanoma): 30.3 µM
TGI (UO-31 renal): 27.3 µM
TGI (XF 498 CNS): 26.6 µM

C=C1C(=O)OC2C=C(C)CC3C=C(CCC=C(C)CCC12)C(=O)O3 (stereo not given)
TGI (A498 renal): 167 µM
TGI (A549 NSCLC): 203 µM
TGI (CAKI-1 renal): 140 µM
TGI (CCRF-CEM leukemia): 104 µM
TGI (COLO 205 colon): 115 µM
TGI (DLD-1 colon): 137 µM
TGI (DMS 114 small cell lung): 151 µM
TGI (DMS 273 small cell lung): 145 µM
TGI (EKVX NSCLC): 118 µM
TGI (HCC-2998 colon): 105 µM
TGI (HCT-116 colon): 85.6 µM
TGI (HCT-15 colon): 131 µM
TGI (HL-60(TB) leukemia): 73.4 µM
TGI (HOP-18 NSCLC): 78.5 µM
TGI (HOP-62 NSCLC): 216 µM
TGI (HOP-92 NSCLC): 116 µM
TGI (HT29 colon): 131 µM
TGI (IGROV1 ovarian): 115 µM
TGI (K-562 leukemia): 228 µM
TGI (KM12 colon): 109 µM
TGI (KM20L2 colon): 119 µM
TGI (LOX IMVI melanoma): 95.1 µM
TGI (M19-MEL melanoma): 135 µM
TGI (MALME-3M melanoma): > 81.4 µM
TGI (MCF7 breast): 106 µM
TGI (MOLT-4 leukemia): 159 µM
TGI (NCI-H226 lung): 174 µM
TGI (NCI-H23 lung): 117 µM
TGI (NCI-H460 lung): 148 µM
TGI (NCI-H522 lung): 57.9 µM
TGI (NCI/ADR-RES ovarian): 114 µM
TGI (OVCAR-3 ovarian): 116 µM
TGI (OVCAR-4 ovarian): 131 µM
TGI (OVCAR-5 ovarian): 208 µM
TGI (OVCAR-8 ovarian): 174 µM
TGI (P388 leukemia): 85.1 µM
TGI (P388/ADR leukemia): 93.2 µM
TGI (RPMI-8226 leukemia): 155 µM
TGI (RXF 393 renal): 82.3 µM
TGI (SF-268 CNS): 145 µM
TGI (SF-295 CNS): 200 µM
TGI (SF-539 CNS): 199 µM
TGI (SK-MEL-2 melanoma): 101 µM
TGI (SK-MEL-28 melanoma): 119 µM
TGI (SK-MEL-5 melanoma): 138 µM
TGI (SK-OV-3 ovarian): 280 µM
TGI (SN12C renal): 157 µM
TGI (SN12K1 renal): 123 µM
TGI (SNB-19 CNS): 271 µM
TGI (SNB-75 CNS): 196 µM
TGI (SNB-78 CNS): 222 µM
TGI (SW-620 colon): 107 µM
TGI (U251 CNS): 121 µM
TGI (UACC-257 melanoma): 106 µM
TGI (UACC-62 melanoma): 113 µM
TGI (UO-31 renal): 234 µM
